Data on 10 molecules can be found in publication PMC9133015 (Nature Communications, 2022).

“And” between values parts separate entries of the source, which are not always exact repeats. Equal values may be shown once.

The target of this assay is T1, DYRK2 (Homo sapiens, UniProt Q92630).
T1 construct: purchased Reaction Biology Corporation (assay service)
T1 sequence (Q92630 1-601): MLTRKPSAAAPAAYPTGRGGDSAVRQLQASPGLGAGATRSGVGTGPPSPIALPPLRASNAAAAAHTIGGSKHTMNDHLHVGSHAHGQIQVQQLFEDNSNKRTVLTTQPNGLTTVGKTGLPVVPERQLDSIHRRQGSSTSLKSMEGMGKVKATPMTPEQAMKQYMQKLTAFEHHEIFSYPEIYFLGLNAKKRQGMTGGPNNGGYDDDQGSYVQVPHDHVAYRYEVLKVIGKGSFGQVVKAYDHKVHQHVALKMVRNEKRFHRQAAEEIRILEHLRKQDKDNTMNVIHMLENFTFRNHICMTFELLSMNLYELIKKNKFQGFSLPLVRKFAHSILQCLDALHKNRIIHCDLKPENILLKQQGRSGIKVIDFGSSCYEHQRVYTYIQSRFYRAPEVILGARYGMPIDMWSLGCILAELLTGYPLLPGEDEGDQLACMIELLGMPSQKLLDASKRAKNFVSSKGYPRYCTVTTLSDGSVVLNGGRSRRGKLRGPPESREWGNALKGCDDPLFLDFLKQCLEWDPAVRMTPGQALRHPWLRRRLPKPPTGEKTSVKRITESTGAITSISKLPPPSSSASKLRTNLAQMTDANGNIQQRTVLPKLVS
Briefly: DYRKs kinase activity assay (33P-ATP, DYRKtide substrate): DYRK2. Format: biochemical. The conditions noted are these: for % Inhibition: DYRK2 kinase, duplicate values; for IC50: Supplementary Table 1, read-out: IC50 (μM), DYRK2 kinase.

The % Inhibition is the change of the read-out against control, counted positive when it falls. Broadly, the IC50 is the concentration that gives 50% inhibition. Take `CC(C)c1ccc2c(c1)C(N1CCN(CCc3ccc(F)cc3)CC1)Cc1ccc(F)cc1S2` (centres unmarked) [Compound 1]: the half-maximal inhibitory concentration (IC50) is more than 10 µM. Besides, under “Conc. 0.000508053 µM”, the “% Inhibition” value is -1.87% and -4.38%. The “% Inhibition” value (Conc. 0.00152416 µM) was -4.34% and -6.85%. In addition, the “% Inhibition” value (Conc. 0.00457247 µM) is -8.65% and -6.11%. The “% Inhibition” value (Conc. 0.0137174 µM) was -12.64% and -10.09%. Further, where the note is “Conc. 0.0411523 µM”, the “% Inhibition” value was -8.55% and -6.02%. In addition, the “% Inhibition” value (Conc. 0.123457 µM) is -2.02% and 0.35%. Moreover, the “% Inhibition” value (Conc. 0.37037 µM) was 1.52% and 4.04%. In addition, the “% Inhibition” value (Conc. 1.11111 µM) is 8.35% and 5.81%. Moreover, the “% Inhibition” value (Conc. 3.33333 µM) was 1.80% and 0.0379%. In addition, the “% Inhibition” value (Conc. 10 µM) was 28.07% and 27.88%.

On to `Cc1ccccc1C1C=C(c2ccccc2)OC(c2ccccc2)=C1C=NCCc1c[nH]c2ccccc12` (centres unmarked) [Compound 2], for which the IC50 was more than 10 µM. For the same molecule, for the setting “Conc. 0.000508053 µM”, the “% Inhibition” value was -5.36% and -2.56%. Moreover, the “% Inhibition” value (Conc. 0.00152416 µM) was -6.00% and -8.80%. Besides, the “% Inhibition” value (Conc. 0.00457247 µM) was -4.71% and -7.51%. Further, the “% Inhibition” value (Conc. 0.0137174 µM) was 3.44% and 4.28%. The “% Inhibition” value (Conc. 0.0411523 µM) is 3.20% and 5.16%. The “% Inhibition” value (Conc. 0.123457 µM) is 5.94% and 3.15%. Moreover, the “% Inhibition” value (Conc. 0.37037 µM) was 4.61% and 6.29%. Besides, the “% Inhibition” value (Conc. 1.11111 µM) was 5.16% and 2.64%. In addition, the “% Inhibition” value (Conc. 3.33333 µM) was 1.41% and 4.21%. Also, under “Conc. 10 µM”, the “% Inhibition” value is 9.74% and 12.54%.

Regarding `COc1ccc(C2CC(c3ccc(Cl)cc3)=NN2c2ccc(C=NNc3ccccc3)cc2)cc1` (centres unmarked) [Compound 3], the IC50 is more than 10 µM. In addition, the “% Inhibition” value (Conc. 0.000508053 µM) is 1.91% and 4.22%. In addition, the “% Inhibition” value (Conc. 0.00152416 µM) is 6.35% and 8.58%. In addition, the “% Inhibition” value (Conc. 0.00457247 µM) was 2.63% and 4.93%. Further, for the setting “Conc. 0.0137174 µM”, the “% Inhibition” value was 8.54% and 10.71%. For the same molecule, where the note is “Conc. 0.0411523 µM”, the “% Inhibition” value was 6.26% and 8.49%. For the setting “Conc. 0.123457 µM”, the “% Inhibition” value was 10.47% and 12.60%. Further, the “% Inhibition” value (Conc. 0.37037 µM) is 12.78% and 14.86%. The “% Inhibition” value (Conc. 1.11111 µM) is 20.14% and 19.70%. Also, under “Conc. 3.33333 µM”, the “% Inhibition” value was 22.94% and 20.08%. Also, for the setting “Conc. 10 µM”, the “% Inhibition” value was 22.88% and 24.74%.

For the molecule `O=C(CSc1nnc2sc3ccccc3n12)N1CCN(C(=O)CSc2nnc3sc4ccccc4n23)CC1` [Compound 4], the concentration for half-maximal inhibition (IC50) was more than 10 µM. The “% Inhibition” value (Conc. 0.000508053 µM) is 0.98% and -1.30%. The “% Inhibition” value (Conc. 0.00152416 µM) was 14.00% and 9.63%. Moreover, under “Conc. 0.00457247 µM”, the “% Inhibition” value was 3.52% and 1.28%. Moreover, the “% Inhibition” value (Conc. 0.0137174 µM) is 7.11% and 4.92%. Moreover, the “% Inhibition” value (Conc. 0.0411523 µM) is 13.04% and 8.66%. In addition, the “% Inhibition” value (Conc. 0.123457 µM) was 25.55% and 23.66%. Moreover, the “% Inhibition” value (Conc. 0.37037 µM) was 22.22% and 20.28%. Moreover, the “% Inhibition” value (Conc. 1.11111 µM) is 26.61% and 24.74%. In addition, the “% Inhibition” value (Conc. 3.33333 µM) is 20.66% and 23.29%. Besides, the “% Inhibition” value (Conc. 10 µM) was 27.83% and 25.98%.

For `CC(=NNc1nc2c(c(=O)n(Cc3ccccc3)c(=O)n2C)n1Cc1ccccc1)c1ccccc1` [Compound 5], the half-maximal inhibitory concentration (IC50) is more than 10 µM. In addition, the “% Inhibition” value (Conc. 0.000508053 µM) was 1.24% and 7.59%. For the same molecule, the “% Inhibition” value (Conc. 0.00152416 µM) is -1.11% and 5.39%. In addition, where the note is “Conc. 0.00457247 µM”, the “% Inhibition” value is 11.00% and 16.72%. For the same molecule, under “Conc. 0.0137174 µM”, the “% Inhibition” value is 2.77% and 9.02%. Moreover, under “Conc. 0.0411523 µM”, the “% Inhibition” value was 5.65% and 11.72%. In addition, the “% Inhibition” value (Conc. 0.123457 µM) is 2.54% and 8.81%. The “% Inhibition” value (Conc. 0.37037 µM) is 4.47% and 10.61%. Under “Conc. 1.11111 µM”, the “% Inhibition” value was 17.84% and 23.14%. Further, where the note is “Conc. 3.33333 µM”, the “% Inhibition” value was 28.55% and 33.16%. The “% Inhibition” value (Conc. 10 µM) was 29.52% and 31.99%.

`CCOC(=O)CC1=NN(c2ccccc2)C(=O)C1=c1sc(=C2Sc3ccccc3N2C)c(=O)n1CC` [Compound 6]: the IC50 is more than 10 µM. The “% Inhibition” value (Conc. 0.000508053 µM) is -4.08% and 2.50%. Also, under “Conc. 0.00152416 µM”, the “% Inhibition” value is 1.60% and 6.11%. Also, the “% Inhibition” value (Conc. 0.00457247 µM) was 3.31% and 7.66%. Further, the “% Inhibition” value (Conc. 0.0137174 µM) was 5.42% and 7.24%. In addition, the “% Inhibition” value (Conc. 0.0411523 µM) is -2.71% and 2.20%. For the setting “Conc. 0.123457 µM”, the “% Inhibition” value is 2.56% and 6.98%. Further, the “% Inhibition” value (Conc. 0.37037 µM) was 3.14% and 5.17%. For the setting “Conc. 1.11111 µM”, the “% Inhibition” value was -1.20% and 3.57%. Besides, the “% Inhibition” value (Conc. 3.33333 µM) was 2.35% and 4.46%. The “% Inhibition” value (Conc. 10 µM) was 7.66% and 11.60%.

As for `Cc1ccc(CN(Cc2ccc(C=NNC(=O)c3c(C)nc4sccn34)o2)S(=O)(=O)c2ccc(C)cc2)cc1` [Compound 7], the IC50 is more than 10 µM. Under “Conc. 0.000508053 µM”, the “% Inhibition” value was -2.50% and -2.39%. Besides, the “% Inhibition” value (Conc. 0.00152416 µM) was -0.71% and 1.61%. In addition, the “% Inhibition” value (Conc. 0.00457247 µM) was 3.49% and 3.33%. The “% Inhibition” value (Conc. 0.0137174 µM) was 5.71% and 7.69%. Moreover, where the note is “Conc. 0.0411523 µM”, the “% Inhibition” value was -2.86% and -2.73%. Further, the “% Inhibition” value (Conc. 0.123457 µM) was 2.70% and 2.58%. Also, the “% Inhibition” value (Conc. 0.37037 µM) was 3.31% and 5.45%. For the same molecule, the “% Inhibition” value (Conc. 1.11111 µM) is -1.26% and -1.20%. Also, the “% Inhibition” value (Conc. 3.33333 µM) is 2.47% and 2.36%. Further, where the note is “Conc. 10 µM”, the “% Inhibition” value is 8.07% and 7.70%.

On to `O=C(c1cccc(Cn2cc(Br)c([N+](=O)[O-])n2)c1)N1CCN(C(=O)c2ccco2)CC1` [Compound 8], for which the IC50 is more than 10 µM. Further, the “% Inhibition” value (Conc. 0.000508053 µM) was -2.60% and -0.07%. Also, where the note is “Conc. 0.00152416 µM”, the “% Inhibition” value was -3.65% and -2.08%. Further, for the setting “Conc. 0.00457247 µM”, the “% Inhibition” value was -3.85% and -2.28%. The “% Inhibition” value (Conc. 0.0137174 µM) is -16.34% and -14.56%. For the same molecule, the “% Inhibition” value (Conc. 0.0411523 µM) was -10.92% and -10.74%. Moreover, the “% Inhibition” value (Conc. 0.123457 µM) is -6.09% and -4.48%. For the same molecule, the “% Inhibition” value (Conc. 0.37037 µM) is -6.00% and -2.89%. For the same molecule, for the setting “Conc. 1.11111 µM”, the “% Inhibition” value is -5.16% and -3.57%. Further, under “Conc. 3.33333 µM”, the “% Inhibition” value was 2.31% and 3.77%. Moreover, the “% Inhibition” value (Conc. 10 µM) is 17.16% and 18.38%.

Consider `CC(C)COc1cccc(-c2cc(C(=O)Nc3sc(C(C)C)cc3C(N)=O)c3ccccc3n2)c1` [Compound 9], for which the half-inhibitory concentration (IC50) was more than 10 µM. Besides, the “% Inhibition” value (Conc. 0.000508053 µM) was 0.43% and 0.42%. Moreover, the “% Inhibition” value (Conc. 0.00152416 µM) was 1.70% and 1.66%. Where the note is “Conc. 0.00457247 µM”, the “% Inhibition” value is -1.24% and 1.19%. Moreover, the “% Inhibition” value (Conc. 0.0137174 µM) is -4.62% and -2.11%. The “% Inhibition” value (Conc. 0.0411523 µM) was -1.40% and 1.03%. Moreover, the “% Inhibition” value (Conc. 0.123457 µM) was 2.80% and 5.13%. In addition, under “Conc. 0.37037 µM”, the “% Inhibition” value was 6.00% and 8.26%. Moreover, under “Conc. 1.11111 µM”, the “% Inhibition” value is 12.51% and 17.02%. Also, the “% Inhibition” value (Conc. 3.33333 µM) was 18.00% and 19.98%. Under “Conc. 10 µM”, the “% Inhibition” value was 35.11% and 36.69%.

Take `Cn1c(=O)c2ncn(CC(=O)Nc3ccc4oc(-c5ccc(Cl)cc5Cl)nc4c3)c2n(C)c1=O` [Compound 10]: the IC50 was more than 10 µM. Further, the “% Inhibition” value (Conc. 0.000508053 µM) was -7.03% and -8.01%. The “% Inhibition” value (Conc. 0.00152416 µM) is -4.24% and -5.18%. Further, where the note is “Conc. 0.00457247 µM”, the “% Inhibition” value is -3.26% and -1.51%. Besides, the “% Inhibition” value (Conc. 0.0137174 µM) was -9.75% and -7.91%. Further, where the note is “Conc. 0.0411523 µM”, the “% Inhibition” value was -10.96% and -9.20%. The “% Inhibition” value (Conc. 0.123457 µM) was 0.34% and -3.30%. Also, where the note is “Conc. 0.37037 µM”, the “% Inhibition” value was 1.49% and 3.01%. The “% Inhibition” value (Conc. 1.11111 µM) is 15.95% and 17.31%. For the same molecule, the “% Inhibition” value (Conc. 3.33333 µM) was 6.96% and 8.47%. The “% Inhibition” value (Conc. 10 µM) was 22.24% and 25.76%.
